The numbers were not newly measured in article PMC11170107, “Development of a new hazard scoring system in primary neuronal cell cultures for drug-induced acute neuronal toxicity identification in early drug discovery” (Frontiers in Pharmacology, 2024), which cites them from elsewhere.

The conditions of data set [1]: WHO adverse drug reactions VigiBase; ref Kumlien and Lundberg, 2010; cited from earlier work.
The conditions of data set [2]: ref National library of medicine, Daylimed; cited from earlier work.
For data set [3] the following is noted: cited from earlier work; for Free Cmax highest: Supplementary Table S1.
The conditions of data set [4]: seizure ADR frequency in SIDER; ref Campillos et al., 2008; Kuhn et al., 2010; cited from earlier work.

Regarding `CC(=O)Nc1ccc(O)cc1` [Acetaminophen], the “Percentage seizures of total number of ADRs” value (shortened to “Percentage seizures”) in data set [1] is listed as 0.4389%. In data set [2], the “FDA prescription information at therapeutic dose (Convulsion/ Seizure/Lower the seizure threshold/withdrawal)” value was “not found on label”. Further, the “Free Cmax highest” value in data set [3] was 540 nM.

In the case of `NC12CC3CC(CC(C3)C1)C2` [Amantadine], in data set [3], the “Free Cmax highest” value is 2840 nM.

For the molecule `CCN(CC)C(C)C(=O)c1ccccc1` (stereo not drawn) [Amfepramone], the “Free Cmax highest” value in data set [3] is 90 nM.

Consider `Clc1ccc2c(c1)C(N1CCNCC1)=Nc1ccccc1O2` [Amoxapine], for which the “Percentage seizures” value in data set [1] is 4.864%. In addition, the “FDA prescription information at therapeutic dose (Convulsion/ Seizure/Lower the seizure threshold/withdrawal)” value in data set [2] is recorded as “on label”. Also, the “Free Cmax highest” value in data set [3] was 10 nM. The “SIDER ADR on-/off-label” value in data set [4] is given as “no frequency information”.

For the molecule `CC1(C)S[C@@H]2[C@H](NC(=O)[C@H](N)c3ccc(O)cc3)C(=O)N2[C@H]1C(=O)O` [Amoxicillin], the “Percentage seizures” value in data set [1] was 0.1648%. The “FDA prescription information at therapeutic dose (Convulsion/ Seizure/Lower the seizure threshold/withdrawal)” value in data set [2] is given as “on label”. The “Free Cmax highest” value in data set [3] was 25830 nM. Moreover, the “SIDER ADR on-/off-label” value in data set [4] is recorded as “very rare, postmarketing”.

`CC(N)Cc1ccccc1` (stereo not drawn) [Amphetamine]: in data set [1], the “Percentage seizures” value was 1.043%.

With `CN1CCc2cccc3c2[C@H]1Cc1ccc(O)c(O)c1-3` [Apomorphine], the “Percentage seizures” value in data set [1] is 0.382%. In data set [2], the “FDA prescription information at therapeutic dose (Convulsion/ Seizure/Lower the seizure threshold/withdrawal)” value was “not found on label”. Besides, the “Free Cmax highest” value in data set [3] is 0.4 nM. Besides, in data set [4], the “SIDER ADR on-/off-label” value is given as “not found on label”.

With `O=C1CCc2ccc(OCCCCN3CCN(c4cccc(Cl)c4Cl)CC3)cc2N1` [Aripiprazole], the “Percentage seizures” value in data set [1] is on record as 1.175%. Moreover, the “FDA prescription information at therapeutic dose (Convulsion/ Seizure/Lower the seizure threshold/withdrawal)” value in data set [2] is “on label”. Moreover, the “Free Cmax highest” value in data set [3] is 11 nM. Further, the “SIDER ADR on-/off-label” value in data set [4] was “Postmarketing”.

Regarding `NC(=O)N1c2ccccc2C=Cc2ccccc21` [Carbamazepine], the “Percentage seizures” value in data set [1] is on record as 5.289%. The “FDA prescription information at therapeutic dose (Convulsion/ Seizure/Lower the seizure threshold/withdrawal)” value in data set [2] is on record as “not found on label”. Besides, the “Free Cmax highest” value in data set [3] is 12100 nM. Besides, the “SIDER ADR on-/off-label” value in data set [4] was “common”.

`C[C@@](Cc1ccc(O)c(O)c1)(NN)C(=O)O` [Carbidopa]: in data set [1], the “Percentage seizures” value is listed as 0.8032%. Further, the “FDA prescription information at therapeutic dose (Convulsion/ Seizure/Lower the seizure threshold/withdrawal)” value in data set [2] is on record as “on label”. The “Free Cmax highest” value in data set [3] was 550 nM. Moreover, in data set [4], the “SIDER ADR on-/off-label” value is on record as “no frequency information”.

As to `CN(C)CCCN1c2ccccc2Sc2ccc(Cl)cc21` [Chlorpromazine], the “Percentage seizures” value in data set [1] is listed as 1.468%. Further, the “FDA prescription information at therapeutic dose (Convulsion/ Seizure/Lower the seizure threshold/withdrawal)” value in data set [2] was “On label”. Besides, the “Free Cmax highest” value in data set [3] is 54 nM.

Regarding `CN(C)CCCN1c2ccccc2CCc2ccc(Cl)cc21` [Clomipramine], in data set [3], the “Free Cmax highest” value is 9 nM.

`CN1CCN(C2=Nc3cc(Cl)ccc3Nc3ccccc32)CC1` [Clozapine]: in data set [3], the “Free Cmax highest” value is 70 nM.

For the molecule `COc1ccc2c3c1O[C@H]1[C@@H](O)C=C[C@H]4[C@@H](C2)N(C)CC[C@@]341` [Codeine], in data set [3], the “Free Cmax highest” value is 880 nM.

In the case of `CN1CCN(C(c2ccccc2)c2ccccc2)CC1` [Cyclizine], in data set [1], the “Percentage seizures” value is recorded as 1.797%. Moreover, in data set [3], the “Free Cmax highest” value was 105 nM. Also, the “SIDER ADR on-/off-label” value in data set [4] is recorded as “no frequency information”.

For `C[C@@H]1C[C@H]2[C@@H]3CCC4=CC(=O)C=C[C@]4(C)[C@@]3(F)[C@@H](O)C[C@]2(C)[C@@]1(O)C(=O)CO` [Dexamethasone], the “Percentage seizures” value in data set [1] is on record as 0.5218%. Also, the “FDA prescription information at therapeutic dose (Convulsion/ Seizure/Lower the seizure threshold/withdrawal)” value in data set [2] is recorded as “On label”. Besides, in data set [3], the “Free Cmax highest” value was 25 nM. In addition, the “SIDER ADR on-/off-label” value in data set [4] is “no frequency information”.

`COc1cccc2c1C(=O)c1c(O)c3c(c(O)c1C2=O)C[C@@](O)(C(=O)CO)C[C@@H]3O[C@H]1C[C@H](N)[C@H](O)[C@H](C)O1` [Doxorubicin]: in data set [1], the “Percentage seizures” value is given as 0.3099%. Besides, in data set [2], the “FDA prescription information at therapeutic dose (Convulsion/ Seizure/Lower the seizure threshold/withdrawal)” value is recorded as “On label”. Also, the “Free Cmax highest” value in data set [3] was 3990 nM. For the same molecule, the “SIDER ADR on-/off-label” value in data set [4] was “postmarketing, uncommon”.

For `COc1ccc(Cl)cc1[C@]1(F)C(=O)Nc2cc(C(F)(F)F)ccc21` [Flindokalner], the “Free Cmax highest” value in data set [3] was 340 nM.

As for `CN(C)CCCN1c2ccccc2CCc2ccccc21` [Imipramine], the “Percentage seizures” value in data set [1] was 1.538%. The “FDA prescription information at therapeutic dose (Convulsion/ Seizure/Lower the seizure threshold/withdrawal)” value in data set [2] is “On label”. Also, the “Free Cmax highest” value in data set [3] was 53 nM.

For `NNC(=O)c1ccncc1` [Isoniazid], the “Percentage seizures” value in data set [1] is recorded as 0.676%. For the same molecule, in data set [2], the “FDA prescription information at therapeutic dose (Convulsion/ Seizure/Lower the seizure threshold/withdrawal)” value is listed as “on label”. Besides, the “Free Cmax highest” value in data set [3] is 57000 nM. In addition, in data set [4], the “SIDER ADR on-/off-label” value is reported as “no frequency information”.

Take `CC[C@@H](C(N)=O)N1CCCC1=O` [Levetiracetam]: the “Percentage seizures” value in data set [1] was 15.5539%. Also, the “FDA prescription information at therapeutic dose (Convulsion/ Seizure/Lower the seizure threshold/withdrawal)” value in data set [2] is given as “On label”. In addition, the “Free Cmax highest” value in data set [3] is 276350 nM. Also, the “SIDER ADR on-/off-label” value in data set [4] is recorded as 2.38% - 6%.

For the molecule `Cc1ccc(F)c(NC(=O)Nc2ccc(-c3cccc4[nH]nc(N)c34)cc2)c1` [Linifanib], the “Percentage seizures” value in data set [1] is 0%.

Take `O=C1N(c2ccccc2)c2ccccc2C1(Cc1ccncc1)Cc1ccncc1` [Linopirdine]: in data set [3], the “Free Cmax highest” value is 3000 nM.

`CNCCCC12CCC(c3ccccc31)c1ccccc12` [Maprotiline]: in data set [1], the “Percentage seizures” value is 7.924%. In data set [3], the “Free Cmax highest” value is 73.3 nM. Further, in data set [4], the “SIDER ADR on-/off-label” value is “no frequency information”.

In the case of `CC1CCN(CCCC(=O)c2ccc(F)cc2)CC1` [Melperone], the “Free Cmax highest” value in data set [3] was 240 nM.

With `CC(=O)/N=c1/sc(S(N)(=O)=O)nn1C` [Methazolamide], the “Percentage seizures” value in data set [1] was 0%. In data set [2], the “FDA prescription information at therapeutic dose (Convulsion/ Seizure/Lower the seizure threshold/withdrawal)” value is recorded as “On label”. For the same molecule, in data set [3], the “Free Cmax highest” value is 20400 nM. Moreover, the “SIDER ADR on-/off-label” value in data set [4] is listed as “no frequency information”.

Take `COC(=O)C(c1ccccc1)C1CCCCN1` (stereo not drawn) [Methylphenidate]: the “FDA prescription information at therapeutic dose (Convulsion/ Seizure/Lower the seizure threshold/withdrawal)” value in data set [2] was “On label”. Also, in data set [3], the “Free Cmax highest” value was 165 nM. The “SIDER ADR on-/off-label” value in data set [4] is listed as “postmarketing”.

In the case of `COc1c(N2C[C@@H]3CCCN[C@@H]3C2)c(F)cc2c(=O)c(C(=O)O)cn(C3CC3)c12` [Moxifloxacin], the “Free Cmax highest” value in data set [3] was 8134 nM.

With `Cc1nccn1CC1CCc2c(c3ccccc3n2C)C1=O` (stereo not drawn) [Ondansetron], the “Percentage seizures” value in data set [1] was 1.344%. For the same molecule, the “FDA prescription information at therapeutic dose (Convulsion/ Seizure/Lower the seizure threshold/withdrawal)” value in data set [2] is reported as “on label”. Also, the “Free Cmax highest” value in data set [3] was 51.3 nM. Also, the “SIDER ADR on-/off-label” value in data set [4] is on record as “uncommon”.

`Cc1ccccc1C(OCCN(C)C)c1ccccc1` (stereo not drawn) [Orphenadrine]: the “Percentage seizures” value in data set [1] is 0.6083%. Further, in data set [2], the “FDA prescription information at therapeutic dose (Convulsion/ Seizure/Lower the seizure threshold/withdrawal)” value is given as “not found on label”. For the same molecule, in data set [3], the “Free Cmax highest” value was 10 nM. The “SIDER ADR on-/off-label” value in data set [4] is “not found on label”.

Turning to `CC[C@@H]1C(=O)OC[C@@H]1Cc1cncn1C` [Pilocarpine], the “Percentage seizures” value in data set [1] is 0.1965%. The “FDA prescription information at therapeutic dose (Convulsion/ Seizure/Lower the seizure threshold/withdrawal)” value in data set [2] is given as “not found on label”. Further, the “Free Cmax highest” value in data set [3] was 375 nM. Further, the “SIDER ADR on-/off-label” value in data set [4] was “not found on label”.

As to `CC(CN1c2ccccc2Sc2ccccc21)N(C)C` (stereo not drawn) [Promethazine], in data set [1], the “Percentage seizures” value is given as 1.639%. Moreover, the “FDA prescription information at therapeutic dose (Convulsion/ Seizure/Lower the seizure threshold/withdrawal)” value in data set [2] is given as “on label”. Further, the “Free Cmax highest” value in data set [3] is 72 nM. In addition, the “SIDER ADR on-/off-label” value in data set [4] is on record as “no frequency information”.

`CC(C)NCC(O)COc1cccc2ccccc12` (stereo not drawn) [Propranolol]: the “Free Cmax highest” value in data set [3] is 120 nM.

Consider `Cc1ncc(CO)c(CO)c1O` [Pyridoxine], for which the “Percentage seizures” value in data set [1] is on record as 0.4851%. Besides, the “FDA prescription information at therapeutic dose (Convulsion/ Seizure/Lower the seizure threshold/withdrawal)” value in data set [2] is recorded as “not found on label”. Further, the “Free Cmax highest” value in data set [3] was 280 nM. In addition, the “SIDER ADR on-/off-label” value in data set [4] is “not found on label”.

For the molecule `CC(C)(C)NCC(O)c1ccc(O)c(CO)c1` (stereo not drawn) [Salbutamol], the “Percentage seizures” value in data set [1] is recorded as 0.3555%. Further, the “Free Cmax highest” value in data set [3] is 56 nM.

With `OC[C@@H](O)[C@@H](O)[C@H](O)[C@@H](O)CO` [Sorbitol], the “Percentage seizures” value in data set [1] is 0.6135%. For the same molecule, the “FDA prescription information at therapeutic dose (Convulsion/ Seizure/Lower the seizure threshold/withdrawal)” value in data set [2] is “not found on label”. Further, in data set [4], the “SIDER ADR on-/off-label” value is “no frequency information”.

As to `CC(C)(C)C(O)/C=C/c1ccc2c(c1)OCO2` (stereo not drawn) [Stiripentol], in data set [3], the “Free Cmax highest” value is 670 nM.

Regarding `Cn1c(=O)c2[nH]cnc2n(C)c1=O` [Theophylline], the “Percentage seizures” value in data set [1] is given as 4.2336%. Moreover, the “Free Cmax highest” value in data set [3] is 26580 nM.

For `NC[C@H]1CC[C@H](C(=O)O)CC1` [Tranexamic Acid], in data set [1], the “Percentage seizures” value is 1.5%. Moreover, the “FDA prescription information at therapeutic dose (Convulsion/ Seizure/Lower the seizure threshold/withdrawal)” value in data set [2] is recorded as “On label”. For the same molecule, in data set [3], the “Free Cmax highest” value is 101250 nM and the “free Cmax concentration in man” value was over 100000 nM. In addition, in data set [4], the “SIDER ADR on-/off-label” value was “postmarketing”.

`C[C@@H]([C@@H](O)c1ccc(O)cc1)N1CCC(O)(c2ccccc2)CC1` [Traxoprodil (CP-101606), Traxoprodil]: in data set [3], the “Free Cmax highest” value was 94 nM.
